Source: patent US20090028925A1, “Novel Phosphinic Acid-Containing Thyromimetics” (priority 2005, published 2009)

Key:
[1] = in the monkey; cited from earlier work
[2] = effects on cholesterol and TSH at the same or not pharmacologically different doses; cited from earlier work
[3] = rodent models and monkeys; cited from earlier work
[4] = tested on: human hepatoma cells; conditions: via thyroid hormone receptor activation; cited from earlier work
[5] = tested on: liver mitochondrial glycerol phosphate dehydrogenase (mGPDH) activity; assay: Subacute study in normal rats, continuous infusion: liver mGPDH activity; type: in vivo, rats (Sprague-Dawley); conditions: continuous infusion 1 mg/kg/day
Text: (§1) Efficacy endpoints include serum cholesterol, liver mitochondrial glycerol phosphate dehydrogenase (mGPDH) activity and the expression of relevant liver genes (e.g., the LDL-receptor, apoB, cpt-1, spot14 and apoAI). Safety parameters include heart weight, heart rate, heart mGPDH activity, the expression and key genes involved in cardiac structure and function (e.g., Serca2, HCN2, Kv1.5, MHCα, MHCβ, Alpha1c), and standard plasma chemistry analysis (liver enzymes, electrolytes, creatinine). Endocrine effects are monitored by analysis of serum thyroid stimulating hormone (TSH). [Taylor et al., Mol Pharmacol 52(3): 542-7 (1997); Weitzel et al., Eur J Biochem 268(14):4095-4103 (2001)]
(§2) Methods: mGPDH activity was analyzed in isolated mitochondria using 2-(4-iodophenyl)-3-(4-nitrophenyl)-5-phenyl tetrazolium chloride as the terminal electron acceptor (Gardner R S, Analytical Biochemistry 59:272 (1974)). Commercially available GPDH was used in each assay as a standard (Sigma, St. Louis, Mo.). Changes in levels of mRNA for liver and heart genes are analyzed using reverse transcriptase followed by real-time PCR analysis. The analysis is performed using an iCycler instrument (Biorad) and appropriate primers by means of standard methodology [e.g., Schwab D A et al. (2000) Life Sciences 66: 1683-94]. The amounts of mRNA are normalized to an internal control, typically, cyclophilin. Serum TSH is measured using an enzyme immunoassay (EIA) kit designed for rat TSH (Amersham Pharmacia Biotech, Arlington Heights, Ill.).
(§3) Normal rats (Sprague-Dawley) were maintained on a standard diet. […] The compounds were brought up to an appropriate volume using PBS and BSA to maintain solubility within the pump. The compounds were chemically stable in the excipient at 37° C. for 7 days.
(§4) Values are expressed as percent of control. (Table 4)

[6] = tested on: heart mGPDH activity; assay: Subacute study in normal rats, continuous infusion: heart mGPDH activity; type: in vivo, rats (Sprague-Dawley); conditions: continuous infusion 1 mg/kg/day
Text: as §1, §2, §3, §4

[7] = Subacute study in normal rats, continuous infusion: heart weight; type: in vivo, rats (Sprague-Dawley); conditions: continuous infusion 1 mg/kg/day
Text: as §1, §3, §4

[8] = tested on: serum cholesterol; assay: Subacute study in cholesterol-fed rats, IP: serum cholesterol; type: in vivo; conditions: IP once-a-day for seven days
[9] = Tissue distribution and pharmacokinetics following IP administration to normal rats; type: in vivo, SD rats; conditions: 10 mg/kg IP
Text: At pre-selected time points following dosing, the rats were anesthetized using iso-fluorane and the peritoneal cavity was then opened and a blood sample was obtained from the abdominal vena cava. In addition, liver, kidney, and heart were excised and immersed in 3 volumes of cold 60% acetonitrile. The blood samples were briefly centrifuged and the plasma fraction was then extracted with 1.5 volumes of methanol, processed, and analyzed by LC-UV as described in Example G. The frozen liver, kidney, and heart tissue were homogenized in 60% v/v acetonitrile, centrifuged, and then analyzed by LC-UV. Pharmacokinetic parameters and AUC of the plasma and tissue concentration-time profiles were determined noncompartmentally by WinNonLin.

[10] = Continuous infusion study in rats on a cholesterol-containing diet; type: in vivo; conditions: continuous infusion 1 mg/kg/day
Method: Screening for thyromimetic activity was performed in normal rats maintained on a cholesterol-containing diet. Compounds were administered by continuous infusion using an osmotic pump at 1 mg/kg/day.

[11] = Subacute study in cholesterol-fed rats, IP: heart weight and heart mGPDH activity
Method: The cholesterol-fed rat is an animal model of hypercholesterolemia generated by feeding the animals a diet with high cholesterol content.
Serum cholesterol values were assessed and the animals randomized into groups for treatment.

[12] = tested on: liver triglycerides; assay: Hepatic triglyceride content in normal rats, chronic infusion; type: in vivo; conditions: normal rats chronically infused for 7 days
Method: Normal rats were chronically infused with Compound 7 for 7 days. Liver triglycerides were analyzed following lipid extraction by the Bligh Dyer method (Bligh E G and Dyer W J, A rapid method of total lipid extraction and purification. Can J Med. Sci. 1959 (August); 37(8):911-7, incorporated herein by reference). Total triglycerides were analyzed in the liver extracts by an enzymatic assay (Thermo Electron Corporation). Total lipid was normalized to initial liver weight and triglyceride content was normalized to liver weight. […] There was a 4% reduction in liver triglycerides for this group and the results were not statistically significant.

[13] = rat, in vivo, 28 days
Method: Compound 18 was administered at doses up to 5 mg/kg/d. Compound cis-13-1 was administered at doses up to 50 mg/kg/d. We reasoned that the ZDF rat, as a metabolically challenged animal model, would be more sensitive to the potential adverse cardiac effects of thyromimetics than a normal, cholesterol-fed rat. At sacrifice, heart rate, and the first derivative of left ventricular pressure (LV dP/dt) were measured with a Millar catheter inserted into the left ventricle.

[14] = set-up: species or system rats; conditions: rat, in vivo
Method: The oral bioavailability (OBAV) of Compound 12-1, a bis POM prodrug of Compound 7, was estimated by comparison of the dose-normalized area under the curve (AUC) of the plasma concentration-time profile of Compound 7 following IV and PO administration of Compound 7 and Compound 12-1, respectively, to normal rats.
Method: Groups of non-fasted male SD rats were administered either 5 mg/kg of Compound 7 by IV bolus or 20 mg/kg of Compound 12-1 by oral gavage. Prior to drug administration, the rats were catheterized at the tail artery to facilitate blood collection. Plasma samples were obtained at pre-specified time points following dosing, extracted with 1.5 volumes of methanol, and then assayed by an LC-UV method using a C18 column eluted with a gradient of 20% to 45% v/v acetonitrile in a potassium phosphate buffer pH 6.2 over 15 min with UV absorbance monitoring at 280 nm. The AUC values were determined noncompartmentally from the plasma concentration-time plots by trapezoidal summation to the last measurable time point.
Plasma levels of compound were analyzed by HPLC and the AUCs for the i.v. dose of 5 mg/kg and the p.o. dose of 20 mg/kg were compared. The maximum OBAV for Compound 19-2 was 0.003%. Typically, compounds that are taken forward as an oral drug candidate have OBAV values of at least 15-20%, when tested in an animal model. This minimal requirement for OBAV in a genetically homogenous model system insures that exposure can be accurately monitored when humans are treated with the compound. Furthermore, in a genetically variable background such as humans, the variability for a compound with low OBAV in genetically homogenous model systems, can be widely variable, leading some subjects to have much higher than anticipated exposure, while other subjects have no exposure.

[15] = Whole animal resting oxygen consumption; type: in vivo, Sprague Dawley rats
Method: Thermogenesis is a measurement of energy consumption. Compounds that increase thermogenesis are likely to increase caloric expenditure and thereby cause body weight loss and its associated benefits to metabolic status (e.g., insulin sensitivity). Thermogenesis is assessed in subcellular fractions of various tissues, isolated cells, whole tissues, or in whole animals using changes in oxygen consumption as the endpoint. Oxygen is used up when calories are burned by various metabolic processes. Methods: Animals are dosed once or several times a day via a parenteral or oral route for a treatment period ranging from 1 day to several weeks. Oxygen consumption is measured following a single or multiple days of treatment. In one assay, whole animal oxygen consumption is measured using an indirect calorimeter (Oxymax, Columbus Instruments, Columbus, Ohio). Animals are removed from their cages and placed in the chambers. The resting oxygen consumption is measured in animals during periods of inactivity as measured by activity monitors. The oxygen consumption is calculated based on the flow through the chamber and the difference in oxygen partial pressures at the inflow and outlet ports. Carbon dioxide (CO2) efflux is also measured in parallel using a CO2 electrode. […] Rats were placed in the FoxBox apparatus (Sable Systems, Las Vegas, Nev.), allowed to acclimate and the resting oxygen consumption was measured. The oxygen consumption rates were compared to pre-dose measurements taken on each individual animal. […] Thus, the compounds of the present invention are useful in increasing oxygen consumption.

[16] = tested on: plasma cholesterol; assay: Cholesterol lowering in hypercholesterolemic rats; type: in vivo; conditions: Rattus norvegicus, po; delivered p.o. (0.5 mg/kg/d); percentage change from pre-dose cholesterol; read-out: % Cholesterol Lowering
[17] = Glucose in ZDF rats; type: in vivo
Method: The decrease was dose dependent. Blood glucose levels at those doses corresponded to 442 mg/dL and 243 mg/dL, respectively. Similar changes were also evident at two weeks, post-treatment.

[18] = Cardiovascular activity in the Sprague Dawley rat (HR, LV dP/dt, aortic pressure, heart weight); type: in vivo; conditions: SD rats, 7 days
Text: Method: […] The control group (n=6) was given vehicle only. […] On the 7th day after the start of dosing, animals were anesthetized with Isofluorane and the left ventricle cannulated with a high fidelity catheter tip transducer via the right carotid artery. Left ventricular pressure, its first derivative (LVdP/dt), lead I ECG, and heart rate (HR) triggered off the ECG waveform, were digitally recorded. LV dP/dt is a well accepted measure of ionotropic state. Systolic and diastolic aortic pressures were measured by retracting the catheter into the proximal aorta.

## CC(C)c1cc(Oc2c(Cl)cc(CC(=O)O)cc2Cl)ccc1O [3,5-dichloro-4-[4-hydroxy-3-(1-methylethyl)phenoxy]benzeneacetic acid]
[1]
  Lp(a) levels: decrease Lp(a) levels
[2]
  TSH levels: dose-dependently lower
  cholesterol levels: dose-dependently lower
[3]
  weight loss in animals: weight loss

## Cc1cc(NC(=O)C(=O)O)cc(C)c1Oc1ccc(O)c(C(C)C)c1 [CGS23425, [[4-[4-hydroxy-3-(1-methylethyl)phenoxy]-3,5-dimethylphenyl]amino]oxo acetic acid]
[4]
  apoAI expression: increased apoAI expression

## Cc1cc(OCC(=O)O)cc(C)c1Cc1ccc(O)c(C(C)C)c1 [Compound 17, [3,5-dimethyl-4-(4′-hydroxy-3′-iso-propylbenzyl)phenoxy]acetic acid, reference compound]
[5]
  Liver GPDH: 426% of control
[6]
  Heart GPDH: 277% of control
[7]
  Heart Weight: 134% of control
[8]
  doses that significantly decreased serum cholesterol: 0.1 to 1 mg/kg/day
[9]
  Heart AUC: 27.6 nmol·h/g
  Kidney AUC: 1.1 nmol·h/g
  Liver AUC: 48.5 nmol·h/g
[9]; male, SD, rat, plasma
  AUC: 2800 ng·h/mL
  Cmax: 3490 ng/mL
  Tmax: 20 min
[9]; male, SD, rat, plasma, read-out: Cl(observed)/F (converted)
  CL/F: 56 mL/min/kg
[9]; male, SD, rat, plasma, read-out: Vz(observed)/F
  Vd/F: 2.2 L/kg
[9]; plasma
  AUMClast: 1.7683 μg * hr^2/mL
  Tlast: 2 h
[10]
  increase of systolic and diastolic blood pressure: 30%
[10]; day 7
  cholesterol: significant decrease in cholesterol
  increase of heart rate: 40%
[10]; day 14
  cholesterol: no significant decrease in cholesterol was observed
[10]; end-of-life
  increase of LV dP/dt: 71%
  left ventricular weight: increased
[11]; IP once-a-day for seven days
  cardiac hypertrophy: cardiac hypertrophy was observed
[11]; IP, 1 mg/kg/day
  Cardiac GPDH activity: increased

## N[C@@H](Cc1ccc(Oc2cc(I)c(O)c(I)c2)c(I)c1)C(=O)O [Compound T3, 3,3′,5′-triiodothyronine, reference compound]
[5]
  Liver GPDH: 406% of control
[6]
  Heart GPDH: 284% of control
[7]
  Heart Weight: 146% of control
[12]
  reduction in liver triglycerides: 4%

## Cc1cc(OC[P@@]2(=O)OCC[C@@H](c3cccc(Cl)c3)O2)cc(C)c1Cc1ccc(O)c(C(C)C)c1 [Compound cis-13-1]
[13]; ZDF
  TI Improvement over Compound 18, ED15 HR: >39
  TI Improvement over Compound 18, ED25 LV dP/dt: >102
[13]
  calculated TI with respect to LV dP/dt: > 10,000
  calculated TI with respect to heart rate: > 3900
[14]
  OBAV when AUC's of Compound cis-13-1 are used: 25%
  OBAV when comparing the AUC's of Compound 7: 40-50%
[15]; 3 mg/kg/d orally for 14 days
  Oxygen consumption following treatment, % of the pre-dose rate: 116%
[15]; 10 mg/kg/d orally for 14 days
  Oxygen consumption following treatment, % of the pre-dose rate: 125%
[15]; 30 mg/kg/d orally for 14 days
  Oxygen consumption following treatment, % of the pre-dose rate: 132%
[16]
  change in vivo at 0.5 mg/kg/day: -31.8%
[17]
  water consumption: dose-dependent decrease in the water consumption
[17]; 4 weeks of treatment, decreased from 618 mg/dL
  Plasma glucose at sacrifice: 437 mg/dL
[17]; 4 weeks of treatment, versus 442 mg/dL
  Blood glucose levels: 243 mg/dL
[18]; oral gavage 1, 5, 10, 30, 50 mg/kg/day
  HR, LV dP/dt, systolic and diastolic aortic pressures: not significantly different compared to vehicle treated animals
[18]; oral gavage 1-50 mg/kg/day
  heart weight or heart weight/body weight ratios: no significant changes in heart weight
